Calls of active or inactive are those of the source. The rule behind the calls is not given here.
Target: Hepatocyte growth factor receptor (Mus musculus) (UniProt P16056)
Assay: Inhibition of TPR-Met phosphorylation in mouse BAF3 cells at 10 uM after 2 hrs by Western blot analysis
Format: cell-based

Chain of Hepatocyte growth factor receptor (Mus musculus) (P16056 whole entry): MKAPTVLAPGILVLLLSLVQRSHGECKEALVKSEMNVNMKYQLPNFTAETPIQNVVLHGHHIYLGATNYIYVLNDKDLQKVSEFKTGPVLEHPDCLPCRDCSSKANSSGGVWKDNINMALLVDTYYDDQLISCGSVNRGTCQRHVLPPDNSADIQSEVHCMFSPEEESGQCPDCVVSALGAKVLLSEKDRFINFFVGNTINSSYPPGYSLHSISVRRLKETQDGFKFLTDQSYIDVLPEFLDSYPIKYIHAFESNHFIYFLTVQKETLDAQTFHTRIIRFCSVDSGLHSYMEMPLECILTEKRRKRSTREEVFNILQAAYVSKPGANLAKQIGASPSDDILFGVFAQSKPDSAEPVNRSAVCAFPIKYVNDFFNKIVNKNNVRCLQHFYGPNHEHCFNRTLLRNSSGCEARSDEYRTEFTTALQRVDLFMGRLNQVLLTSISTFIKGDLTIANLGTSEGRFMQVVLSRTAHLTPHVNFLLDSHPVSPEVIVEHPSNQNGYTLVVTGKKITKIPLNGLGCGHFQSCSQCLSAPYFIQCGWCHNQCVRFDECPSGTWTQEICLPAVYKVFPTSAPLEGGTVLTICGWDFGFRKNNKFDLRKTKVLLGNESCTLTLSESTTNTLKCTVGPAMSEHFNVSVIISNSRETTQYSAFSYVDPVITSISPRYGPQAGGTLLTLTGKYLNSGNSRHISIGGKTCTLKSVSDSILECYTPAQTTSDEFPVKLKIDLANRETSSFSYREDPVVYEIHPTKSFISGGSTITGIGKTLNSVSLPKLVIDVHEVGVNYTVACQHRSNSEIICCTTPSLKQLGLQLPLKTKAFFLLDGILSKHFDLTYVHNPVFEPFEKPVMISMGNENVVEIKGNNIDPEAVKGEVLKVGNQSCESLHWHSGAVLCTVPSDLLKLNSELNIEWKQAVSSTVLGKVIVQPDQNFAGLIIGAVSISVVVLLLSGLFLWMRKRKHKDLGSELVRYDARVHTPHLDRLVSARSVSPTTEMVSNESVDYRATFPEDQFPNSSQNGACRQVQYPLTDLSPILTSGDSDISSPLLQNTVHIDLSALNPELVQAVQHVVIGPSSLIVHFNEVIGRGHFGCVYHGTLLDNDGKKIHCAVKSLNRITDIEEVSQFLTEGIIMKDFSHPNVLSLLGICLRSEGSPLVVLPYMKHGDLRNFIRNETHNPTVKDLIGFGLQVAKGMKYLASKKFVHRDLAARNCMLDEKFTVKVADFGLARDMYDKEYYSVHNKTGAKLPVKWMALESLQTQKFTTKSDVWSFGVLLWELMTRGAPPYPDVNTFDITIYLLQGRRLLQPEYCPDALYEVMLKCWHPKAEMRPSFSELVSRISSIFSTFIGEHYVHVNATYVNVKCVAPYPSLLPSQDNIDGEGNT

| Compound | inhibition |
| --- | --- |
| Nc1c(S(=O)(=O)O)cc(Nc2ccc(-c3ccc(Nc4cc(S(=O)(=O)O)c(N)c5c4C(=O)c4ccccc4C5=O)cc3)cc2)c2c1C(=O)c1ccccc1C2=O | inactive |
| Nc1c(S(=O)(=O)O)cc(Nc2ccc(Cc3ccc(Nc4cc(S(=O)(=O)O)c(N)c5c4C(=O)c4ccccc4C5=O)cc3)cc2)c2c1C(=O)c1ccccc1C2=O | inactive |
| Nc1c(S(=O)(=O)O)cc(Nc2ccc(-c3ccc(Nc4ncccn4)cc3)cc2)c2c1C(=O)c1ccccc1C2=O | inactive |
| Cc1cc(-c2ccc(Nc3cc(S(=O)(=O)O)c(N)c4c3C(=O)c3ccccc3C4=O)c(C)c2)ccc1Nc1cc(S(=O)(=O)O)c(N)c2c1C(=O)c1ccccc1C2=O | inactive |
| CC(=O)Nc1ccc(-c2ccc(Nc3cc(S(=O)(=O)O)c(N)c4c3C(=O)c3ccccc3C4=O)cc2)cc1 | inactive |
| Nc1ccc(-c2ccc(Nc3cc(S(=O)(=O)O)c(N)c4c3C(=O)c3ccccc3C4=O)cc2)cc1 | inactive |
| Cc1cc(Nc2cc(S(=O)(=O)O)c(N)c3c2C(=O)c2ccccc2C3=O)ccc1-c1ccc(Nc2cc(S(=O)(=O)O)c(N)c3c2C(=O)c2ccccc2C3=O)cc1C | inactive |
| Cc1cc(-c2ccc(Nc3cc(S(=O)(=O)O)c(N)c4c3C(=O)c3ccccc3C4=O)c(C)c2)ccc1N | inactive |
